Test results published in patent publication US20110020272A1, “COMBINATION THERAPY FOR TREATING HEPATITIS VIRAL INFECTION” (priority 2009, published 2011).

Legend:
[1] = tested on: Luc-ubi-neo/ET Replicon cells; assay: Cytotoxicity in Replicon cells; type: cell-based, human; settings: 750 nM PI and 0.5 U/ml IFN
Description: Luc-ubi-neo/ET-cells were seeded and incubated with PI and IFN (Roferon A, Roche) for 24 hours on the following day. […] After a 24 hour combined incubation, the medium was changed and cells were incubated for another 48 hours with PI alone. After these 3 days of incubation, HCV RNA replication was determined with respect to the non-treated control.

[2] = tested on: sub-genomic HCV Con 1 isolate in Luc-ubi-neo/ET Replicon cells; assay: HCV RNA replication in Luc-ubi-neo/ET Replicon cells, combined/sequential PI and IFN; type: cell-based
Description: Replicon cells are in general Luc-ubi-neo/ET Replicon cells, which are derived from Huh7 cells and which harbor a sub-genomic HCV Con 1 isolate with a luciferase reporter gene. These so-called Replicon cells allow for in vitro screening of antiviral substances by autonomous HCV RNA replication.
After a 24 hour combined incubation, the medium was changed and cells were incubated for another 48 hours with PI alone. After these 3 days of incubation, HCV RNA replication was determined with respect to the non-treated control.

[3] = PI and IFN 24 h, subsequently PI alone 48 h, 750 nM PI and 0.5 U/ml IFN

O=C1CN(N=C[C@H](Cc2ccccc2)NC(=O)[C@H](Cc2c[nH]c3ccccc23)NC(=O)[C@H](Cc2c[nH]c3ccccc23)NC(=O)OCc2ccccc2)C(=O)N1 [S-2209, S,S,S-[1-[1-[1-Benzyl-2-(2,4-dioxo-imidazolidin-1-ylimino)-ethylcarbamoyl]-2-(1H-indol-3-yl)-ethylcarbamoyl]-2-(1H-indol-3-yl)-ethyl]-carbamic acid benzyl ester]
cytotoxicity [1]: no cytotoxicity is observed | basal replication (HCV RNA replication) [2, 3]: approximately 10% | inhibition of RNA replication [2, 3]: 90% | effect of combination of PI and IFN on HCV-bearing cells ([2]; combined or sequential treatment): synergistic effect | inhibition of HCV RNA replication ([2]; initial experiments, IFN 0.5 U/ml, PI 500-1000 nM): only a low inhibition
